Where two headings read alike, the source gives them in different places.
What was measured:
[1] = molecular target: T1, human C3aR (Homo sapiens, UniProt Q16581); assay: phospho-ERK1/2 assay in CHO-C3aR cells; type: cell-based; settings: efficacy relative to hC3a; fold baseline normalised; n = 3-4
T1 sequence (Q16581 1-482): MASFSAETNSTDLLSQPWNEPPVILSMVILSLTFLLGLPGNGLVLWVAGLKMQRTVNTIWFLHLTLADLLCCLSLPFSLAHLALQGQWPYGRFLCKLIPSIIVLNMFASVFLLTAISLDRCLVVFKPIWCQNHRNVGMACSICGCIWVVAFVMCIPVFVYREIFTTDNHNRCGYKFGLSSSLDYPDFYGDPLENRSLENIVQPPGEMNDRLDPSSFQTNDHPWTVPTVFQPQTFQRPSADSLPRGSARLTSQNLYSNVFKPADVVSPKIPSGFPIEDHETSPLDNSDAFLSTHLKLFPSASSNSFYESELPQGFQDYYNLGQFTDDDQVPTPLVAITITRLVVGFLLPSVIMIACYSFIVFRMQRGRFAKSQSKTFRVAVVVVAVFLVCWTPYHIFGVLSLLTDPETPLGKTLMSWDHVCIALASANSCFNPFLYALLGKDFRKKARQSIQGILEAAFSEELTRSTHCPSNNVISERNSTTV
Description: Cell lines for this study were cultured as previously described ([20]). Non-transfected CHO-K1 cells or CHO cells stably expressing the human C3aR (CHO-C3aR; Product # ES-730-C, PerkinElmer, Melbourne, Australia) were maintained in Ham’s F12 medium containing 10% foetal bovine serum (FBS), 100 IU/ml penicillin and 100 μg/ml streptomycin, with additional 400 μg/ml G418 (In vivoGen, San Diego, USA) added for CHO-C3aR cell culture. HEK293 cells were maintained in DMEM medium containing 10% FBS, 100 IU/ml penicillin and 100 μg/ml streptomycin. All cell lines were maintained in T175 flasks (37°C, 5% CO2) and subcultured at 80-90% confluency using 0.05% trypsin-EDTA in DPBS.
(§1) Ligand-induced ERK1/2 phosphorylation was assessed using the AlphaLISA Surefire Ultra p-ERK1/2 (Thr202/Tyr204) kit (PerkinElmer, Melbourne, Australia) following the manufacturer’s protocol as previously described ([18], [20], [22]). Briefly, CHO-K1, CHO-C3aR, CHO-C5aR1, HMDMs (50,000/well) or BMDMs (90,000/well) were seeded in tissue culture-treated 96-well plates (Corning, Corning, USA) for 24 h and serum-starved overnight. All ligand dilutions were prepared in serum-free medium (SFM) containing 0.1% BSA. For inhibition assays, cells were pre-treated with the following ligands (5 µM SB290157, or respective concentrations of hC3a, mC3a, hC5a, hTLQP-21, and mTLQP-21) or the solvent-only control for 30 min before agonist (hC3a, hTLQP-21 and mTLQP-21) addition. The concentration and identity of the ligands are described in detail in the figure legends. For stimulation, cells were treated with ligands at the indicated concentrations for 10 min at RT and then immediately lysed using AlphaLISA lysis buffer on a microplate shaker (450 rpm, 10 min). For the detection of phospho-ERK1/2 content, cell lysate (5 μL/well) was transferred to a 384-well ProxiPlate (PerkinElmer, Melbourne, Australia) and added to the donor and acceptor reaction mix (2.5 μL/well, respectively), followed by a 2-h incubation at RT in the dark. On a Tecan Spark 20M (Tecan, Männedorf, Switzerland), the plate was measured using standard AlphaLISA settings.
(§2) All experiments were conducted in triplicates and repeated on three separate occasions unless otherwise specified. Data was analysed using GraphPad software (Prism 9.1). Data from each individual repeat was normalised accordingly (as specified in the figure legends) before being combined and expressed as mean ± standard error of the mean (S.E.M.) unless otherwise described. For all dose-response studies, logarithmic concentration-response curves were plotted using combined data and analysed to determine the respective potency values. Statistical analysis was performed using two-way ANOVA with Dunnett’s post hoc analysis. Donor-matched comparisons were made for HMDM experiments. Differences were deemed significant when p < 0.05.
Figure 1 hTLQP-2 and mTLQP-21 activate ERK signalling in CHO-K1 and CHO-C3aR cells. hTLQP-21, mTLQP-21 and plasma-derived human C3a were tested in (A) non-transfected CHO-K1 or (B) CHO cells stably expressing human C3aR. CHO cells were serum-starved overnight and then stimulated with various ligands for 10 min before being lysed. The phospho-ERK1/2 content in the lysate was measured and expressed as fold-baseline before being combined. The maximum relative pERK1/2 activity induced by each ligand is shown in (C). Data represent mean ± S.E.M. of triplicate measurements from 3-4 independent experiments (n = 3-4). Two-way ANOVA with Dunnett’s post hoc analysis. *P < 0.05, ***P < 0.001, ****P < 0.0001. Ligand treated versus medium treated cells for each cell line.

[2] = test system: HMDM (endogenous human C3aR); type: cell-based; settings: 10 min stimulation at RT, n = 4 donors
From the text: HMDMs were generated and cultured as previously described ([20]), with experiments approved by The University of Queensland Human Research Ethics Committee. Briefly, human buffy coat blood from anonymous healthy donors was obtained through the Australian Red Cross Blood Service (Brisbane, Australia). Human CD14+ monocytes were isolated from blood using Lymphoprep density centrifugation (STEMCELL, Melbourne, Australia) followed by CD14+ MACS magnetic bead separation (Miltenyi Biotec, Sydney, Australia). The isolated monocytes were differentiated for 7 days in Iscove’s Modified Dulbecco’s Medium supplemented with 10% FBS, 100 IU/ml penicillin, 100 μg/ml streptomycin and 15 ng/ml recombinant human macrophage colony stimulating factor (BioLegend, San Diego, USA) on 10 mm square dishes (Bio-strategy, Brisbane, Australia). Non-adherent cells were removed by washing with DPBS, and the adherent differentiated HMDMs were harvested by gentle scraping.
as §1, §2
Figure 3 Agonistic and antagonistic activities of hTLQP-21 and mTLQP-21 in human monocyte-derived macrophages. Serum-starved HMDMs (50,000/well) were (A) stimulated with medium or respective ligands at the indicated concentrations for 10 min and then lysed, or (B) pre-treated with 5 µM SB290157 for 30 min prior to stimulation. (C) HMDMs were pre-treated with 10 μM hTLQP-21 or mTLQP-21 for 30 min before being stimulated with respective concentrations of human C3a. (D) HMDMs were pre-treated with 10 nM hC3a, 10 μM hTLQP-21 or mTLQP-21 for 30 min before being stimulated with the same concentrations of the above ligands for 10 min and then lysed. (E) HMDMs were pre-treated with 10 μM hTLQP-21 or mTLQP-21 for 30 min before being stimulated with respective concentrations of human C5a for 10 min and then lysed. […]

[3] = test system: BMDM (murine C3aR); type: cell-based, mouse; settings: wild-type C57BL/6J BMDMs, 90,000/well; 10 min stimulation at RT; AlphaLISA p-ERK1/2; n = 3 mice; C3a is recombinant mouse C3a; read-out: EC50 (pERK1/2), BMDM
Description: Mouse bone marrow-derived macrophages (BMDMs) were obtained and cultured as previously described ([20], [21]). All experiments using mice were approved by the University of Queensland animal ethics committee. Wild-type and C3aR^-/- mice on a C57BL/6J genetic background (n = 3) were sacrificed by cervical dislocation. The tibia was removed and sterilised. Upon removal of both epiphyses, bone marrow cells were harvested by flushing the central cavity with complete RPMI-1640 medium using a 10 ml syringe attached to a 25-gauge needle. Cells were then cultured in complete RPMI-1640 medium (containing 10 % FBS, 100 IU/ml penicillin, 100 μg/ml streptomycin) supplemented with 100 ng/ml recombinant human macrophage colony stimulating factor on 10 mm square dishes. Mature adherent macrophages for assays were harvested on day 6-7 by gentle scraping.
as §1, §2
Figure 4 TLQP-21 triggers ERK signalling through C3aR in murine bone marrow-derive macrophages. BMDMs (90,000/well) from wildtype mice (A) or with C3aR knockout mice (B), were serum-starved overnight and then stimulated with respective ligands at the indicated concentrations for 10 min. The phospho-ERK1/2 content in the cell lysate was measured and normalised to the medium only-treated levels before being combined. Data represent mean ± S.E.M. of triplicate measurements using cells from 3 mice (n = 3).

[4] = molecular target: T2, Human complement C3a receptor, endogenous on human monocyte-derived macrophages (human (endogenous in HMDMs)) (UniProt Q16581)
T2 sequence: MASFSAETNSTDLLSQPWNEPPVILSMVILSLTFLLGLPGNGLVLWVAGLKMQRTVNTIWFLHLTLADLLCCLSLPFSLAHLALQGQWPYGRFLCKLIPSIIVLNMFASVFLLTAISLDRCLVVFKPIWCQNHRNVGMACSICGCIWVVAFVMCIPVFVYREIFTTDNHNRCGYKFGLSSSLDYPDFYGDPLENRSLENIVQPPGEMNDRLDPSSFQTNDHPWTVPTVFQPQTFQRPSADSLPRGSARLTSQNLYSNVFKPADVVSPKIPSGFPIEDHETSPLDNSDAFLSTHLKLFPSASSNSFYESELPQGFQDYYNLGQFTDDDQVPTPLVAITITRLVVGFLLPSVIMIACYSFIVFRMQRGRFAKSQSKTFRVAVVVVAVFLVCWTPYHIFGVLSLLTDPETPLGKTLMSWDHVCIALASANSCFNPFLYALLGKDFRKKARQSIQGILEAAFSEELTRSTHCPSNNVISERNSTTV

[5] = molecular target: T3, Human complement C3a receptor, stably expressed on CHO cells (human) (UniProt Q16581)
T3 sequence: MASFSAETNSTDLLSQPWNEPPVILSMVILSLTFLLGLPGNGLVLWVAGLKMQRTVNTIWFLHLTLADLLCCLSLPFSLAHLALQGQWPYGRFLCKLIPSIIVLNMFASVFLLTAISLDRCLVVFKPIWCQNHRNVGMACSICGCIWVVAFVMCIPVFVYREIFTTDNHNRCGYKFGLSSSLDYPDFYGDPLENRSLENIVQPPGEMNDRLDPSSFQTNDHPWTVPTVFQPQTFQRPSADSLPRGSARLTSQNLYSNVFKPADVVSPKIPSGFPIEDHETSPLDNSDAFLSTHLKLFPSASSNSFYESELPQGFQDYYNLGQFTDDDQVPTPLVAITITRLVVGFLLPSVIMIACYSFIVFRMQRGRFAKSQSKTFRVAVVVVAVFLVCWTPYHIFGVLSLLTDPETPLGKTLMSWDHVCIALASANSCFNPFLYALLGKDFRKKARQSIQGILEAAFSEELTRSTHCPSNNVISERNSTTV

[6] = molecular target: Endogenous C3aR of CHO-K1 cells (Chinese hamster (endogenous in CHO-K1))
[7] = molecular target: T3, Human complement C3a receptor, stably expressed on CHO cells (human); remark: listed apart in the source
[8] = molecular target: T2, Human complement C3a receptor, endogenous on human monocyte-derived macrophages (human (endogenous in HMDMs)); remark: listed apart in the source

EC50 (nM) of ERK1/2 phosphorylation in HMDMs [4] [nM] | EC50 (nM) of ERK1/2 phosphorylation in CHO-C3aR cells [5] [nM] | relative efficacy of C3a-induced ERK signalling in CHO-K1 cells, fold baseline (fold baseline) [6] | relative efficacy of C3a-induced ERK signalling in CHO-C3aR cells, fold baseline (fold baseline) [7] | C3a-induced ERK signalling in HMDMs pre-treated with the C3aR antagonist SB290157, % of the untreated level (% of the untreated level) [8] | Molecule | % C3a activity ± SE, CHO-C3aR [1] [%] | EC50 ([2]; estimated, read-out: estimated EC50 (pERK1/2), HMDM) [nM] | EC50 [3] [nM] | EC50 ([2]; primary human macrophages, 50,000/well, AlphaLISA p-ERK1/2, read-out: EC50 (pERK1/2), HMDM) [nM]
– | – | – | – | – | CC(C)C[C@H](NC(=O)[C@H](C)NC(=O)[C@H](CO)NC(=O)[C@@H]1CCCN1C(=O)[C@@H]1CCCN1C(=O)[C@H](CCC(N)=O)NC(=O)[C@H](CC(C)C)NC(=O)[C@@H](N)[C@@H](C)O)C(=O)N[C@@H](CCCNC(=N)N)C(=O)N[C@@H](CCCNC(=N)N)C(=O)N[C@@H](CCCNC(=N)N)C(=O)N[C@@H](Cc1c[nH]cn1)C(=O)N[C@@H](Cc1ccc(O)cc1)C(=O)N[C@@H](Cc1c[nH]cn1)C(=O)N[C@@H](Cc1c[nH]cn1)C(=O)N[C@@H](C)C(=O)N[C@@H](CC(C)C)C(=O)N1CCC[C@H]1C(=O)N1CCC[C@H]1C(=O)N[C@@H](CO)C(=O)N[C@@H](CCCNC(=N)N)C(=O)O [hTLQP-21] | 87.0 ± 3.5 | 14800 | 401 | –
– | – | – | – | – | CC(C)C[C@H](NC(=O)[C@@H](N)[C@@H](C)O)C(=O)N[C@@H](CCC(N)=O)C(=O)N1CCC[C@H]1C(=O)N1CCC[C@H]1C(=O)N[C@@H](C)C(=O)N[C@@H](CO)C(=O)N[C@@H](CO)C(=O)N[C@@H](CCCNC(=N)N)C(=O)N[C@@H](CCCNC(=N)N)C(=O)N[C@@H](CCCNC(=N)N)C(=O)N[C@@H](Cc1c[nH]cn1)C(=O)N[C@@H](Cc1ccccc1)C(=O)N[C@@H](Cc1c[nH]cn1)C(=O)N[C@@H](Cc1c[nH]cn1)C(=O)N[C@@H](C)C(=O)N[C@@H](CC(C)C)C(=O)N1CCC[C@H]1C(=O)N1CCC[C@H]1C(=O)N[C@@H](C)C(=O)N[C@@H](CCCNC(=N)N)C(=O)O [mTLQP-21] | 91.8 ± 2.7 | – | 96.5 | 2850
0.11 | 0.15 | 2.7 | 7.3 | < 20 | Human C3a (from UniProt P01024 672-748) (ligand) | – | – | – | –
